Patent US9458092B2, “α-Substituted glycinamide derivative” (KISSEI PHARMACEUTICAL CO., LTD., priority 2013, dated 2016)

What was measured:
[1] = biological target: T1, TRPM8 (Rattus norvegicus, UniProt Q8R455); conditions: cited from earlier work
[2] = biological target: T1, TRPM8; experiment: Confirmation test of inhibitory effects on icilin-induced wet-dog shakes; assay type: in vivo, female SD rats; parameters: test compounds were orally administered to female SD rats; from tissue; host or cells: whole animal (female SD rats), endogenous channel; conditions: icilin 1 mg/kg i.p. after 1 hour, shakes counted for 5 minutes
Procedure: Test compounds were dissolved in dimethylacetamide (wako), and 0.5% methylcellulose solution (wako) was added to make the solution or suspension containing 5% of dimethylacetamide. At a dose of 3 or 10 mg/kg/5 mL of test compounds were orally administered to female SD rats. After 1 hour, wet-dog shakes were induced by the intrapenitoneal injection of icilin (1 mg/kg) which was dissolved in polyethylene glycol 400 (wako). From 5 minutes after the administration of icilin, wet-dog shakes were counted for 5 minutes. For control example, vehicle (a mixture of dimethylacetamide (wako): 0.5% methylcellulose (wako)=5:95) was administrated similarly, and the number of wet-dog shakes was counted in the same manner. A percent inhibition of wet-dog shakes by test compound was calculated from the following formula: [1-(test compound wet-dog shake count/vehicle wet-dog shake count)]×100.

[3] = tested on: overactive bladder induced by acetic acid; experiment: Confirmation test of elongation action of micturition interval of overactive bladder induced by acetic acid; assay type: in vivo, female SD rats; conditions: Rattus norvegicus, iv, interval before administration = 100%
Procedure: Urethane (sigma) was dissolved into pure water by 25% w/v, and female SD rats were anesthetized with 1.25 g/kg urethane by subcutaneous administration. Cannulae were placed in femoral vein and bladder, and the bladder cannula was connected to both a syringe pump and a pressure transducer. Detrusor overactivity was induced by intravesical infusion of 0.25% acetic acid in saline at a rate of 3.6 mL/h, and intravesical pressure was monitored via pressure transducer concurrently. Test compounds were dissolved into a mixture of dimethylacetamide and saline (20:80), and were administered via the femoral vein. When an average of the three micturition interval before administration was taken as 100%, an average of the three micturition interval after administration was calculated as Elongation of micturition interval (%) Dose and results are shown in tables 46 and 47.

[4] = 1 mg/kg/ml via the femoral vein
[5] = 1 mg/kg/2 ml via the femoral vein

T1 sequence (Q8R455 whole entry): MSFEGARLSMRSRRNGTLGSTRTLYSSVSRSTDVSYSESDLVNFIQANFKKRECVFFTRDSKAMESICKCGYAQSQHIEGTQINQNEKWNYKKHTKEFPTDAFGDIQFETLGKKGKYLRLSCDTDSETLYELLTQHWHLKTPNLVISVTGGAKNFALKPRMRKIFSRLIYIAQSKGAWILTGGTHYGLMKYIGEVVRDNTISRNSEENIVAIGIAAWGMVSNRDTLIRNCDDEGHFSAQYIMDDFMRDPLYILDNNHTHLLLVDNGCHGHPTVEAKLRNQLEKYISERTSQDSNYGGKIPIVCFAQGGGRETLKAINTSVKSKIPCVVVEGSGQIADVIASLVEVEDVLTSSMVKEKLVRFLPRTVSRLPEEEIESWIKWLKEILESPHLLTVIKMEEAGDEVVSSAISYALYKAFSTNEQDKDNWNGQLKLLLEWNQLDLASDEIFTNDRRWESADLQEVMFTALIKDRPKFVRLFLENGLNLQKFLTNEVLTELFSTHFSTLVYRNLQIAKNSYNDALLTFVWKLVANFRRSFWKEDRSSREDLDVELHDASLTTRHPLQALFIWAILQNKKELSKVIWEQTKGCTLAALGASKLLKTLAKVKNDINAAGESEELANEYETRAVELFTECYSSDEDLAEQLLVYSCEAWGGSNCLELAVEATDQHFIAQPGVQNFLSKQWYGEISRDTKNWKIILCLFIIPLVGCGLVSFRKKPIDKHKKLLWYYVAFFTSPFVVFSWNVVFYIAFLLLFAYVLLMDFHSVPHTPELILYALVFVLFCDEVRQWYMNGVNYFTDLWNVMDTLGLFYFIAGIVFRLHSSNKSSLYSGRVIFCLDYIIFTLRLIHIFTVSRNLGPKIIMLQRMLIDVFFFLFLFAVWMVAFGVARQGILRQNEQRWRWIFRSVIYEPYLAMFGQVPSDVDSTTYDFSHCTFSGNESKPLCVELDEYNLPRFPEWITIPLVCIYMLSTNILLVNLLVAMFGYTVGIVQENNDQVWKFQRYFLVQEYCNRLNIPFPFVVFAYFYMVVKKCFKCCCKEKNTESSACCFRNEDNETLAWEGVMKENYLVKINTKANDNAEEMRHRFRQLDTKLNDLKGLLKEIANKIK

| Structure (SMILES) | % inhibition of Wet-Dog Shake ([2]; dose 3 mg/kg orally) [%] | % inhibition of Wet-Dog Shake ([2]; dose 10 mg/kg orally) [%] | response vs control in vivo at 1 mg/kg [3, 4] [%] | response vs control in vivo at 1 mg/kg [3, 5] [%] | other results |
| --- | --- | --- | --- | --- | --- |
| Cc1cccc(COc2ccccc2C(=O)N(CCCN)Cc2cccs2)c1.Cl [AMTB, N-(3-aminopropyl)-2-{[(3-methylphenyl)methyl]oxy}-N-(2-thienylmethyl)benzamide hydrochloride] | – | – | – | – | frequency of rhythmic bladder contractions ([1]; anesthetized rats): suppresses; nociceptive reflex responses to bladder distension ([1]; anesthetized rats): suppresses; average blood pressure ([1]; rat, in vivo): decrease |
| NC(=O)[C@@H](c1ccccc1)N(C(=O)c1cccnc1N)[C@@H]1CCc2c(F)cc(Cl)cc21 [Example 13, 2-amino-N-[(R)-carbamoylphenylmethyl]-N-[(R)-6-chloro-4-fluoroindan-1-yl]nicotinamide] | 93 | – | 184 | – | – |
| Cc1scnc1C(=O)N([C@@H]1CCc2c(F)cc(Cl)cc21)[C@@H](C(N)=O)c1ccccc1 [Example 2-147LP, N-[(R)-carbamoylphenylmethyl]-N-[(R)-6-chloro-4-fluoroindan-1-yl]-5-methylthiazole-4-carboxamide] | 91 | – | – | 146 | – |
| COc1ccccc1C(=O)N([C@@H]1CCc2c(F)cc(Cl)cc21)[C@@H](C(N)=O)c1ccccc1 [Example 2-89LP, N-[(R)-carbamoylphenylmethyl]-N-[(R)-6-chloro-4-fluoroindan-1-yl]-2-methoxybenzamide] | 100 | – | – | 196 | – |
| NC(=O)[C@@H](c1ccccc1)N(C(=O)c1cccnc1N)[C@@H]1CCc2c(F)cc(F)cc21 [Example 1-3, 2-Amino-N-[(R)-carbamoylphenylmethyl]-N-[(R)-4,6-difluoroindan-1-yl]nicotinamide] | 69 | – | 200 | – | – |
| Cc1ncccc1C(=O)N([C@@H]1CCc2c(F)cc(Cl)cc21)[C@@H](C(N)=O)c1cccnc1 [Example 12, N-[(R)-carbamoylpyridin-3-ylmethyl]-N-[(R)-6-chloro-4-fluoroindan-1-yl]-2-methylnicotinamide] | – | 93 | 142 | – | – |
| NC(=O)[C@@H](c1ccccc1)N(C(=O)c1ccccc1)[C@@H]1CCc2c(F)cc(F)cc21 [Example 2-221LP, N-[(R)-carbamoylphenylmethyl]-N-[(R)-4,6-difluoroindan-1-yl]benzamide] | – | 100 | – | 154 | – |
| NC(=O)[C@@H](c1ccccc1)N(C(=O)c1cccnc1)[C@@H]1CCc2c(F)cc(F)cc21 [Example 1-1, N-[(R)-Carbamoylphenylmethyl]-N-[(R)-4,6-difluoroindan-1-yl]nicotinamide] | – | 95 | 209 | – | – |
| NC(=O)[C@@H](c1ccccc1)N(C(=O)c1ccccc1)[C@@H]1CCc2c(F)cc(Cl)cc21 [Example 2-6LP, N-[(R)-carbamoylphenylmethyl]-N-[(R)-6-chloro-4-fluoroindan-1-yl]benzamide] | 69 | – | – | – | response vs control in vivo at 0.3 mg/kg ([3]; 0.3 mg/kg/ml via the femoral vein): 184% |
| NC(=O)[C@@H](c1ccccc1)N(C(=O)c1ccccc1N)[C@@H]1CCc2c(F)cc(F)cc21 [Example 6-1, 2-amino-N-[(R)-carbamoylphenylmethyl]-N-[(R)-4,6-difluoroindan-1-yl]benzamide] | – | 89 | – | 194 | – |

The next lines start with results.

| % inhibition of Wet-Dog Shake ([2]; dose 3 mg/kg orally) [%] | % inhibition of Wet-Dog Shake ([2]; dose 10 mg/kg orally) [%] | Structure (SMILES) | response vs control in vivo at 1 mg/kg [3, 4] [%] | response vs control in vivo at 1 mg/kg [3, 5] [%] | other results |
| --- | --- | --- | --- | --- | --- |
| 56 | – | NC(=O)[C@@H](c1ccccc1)N(C(=O)c1cccnc1)[C@@H]1CCc2c(F)cc(Cl)cc21 [Example 2-23LP, N-[(R)-carbamoylphenylmethyl]-N-[(R)-6-chloro-4-fluoroindan-1-yl]nicotinamide] | 205 | – | – |
| – | 100 | NC(=O)[C@@H](c1ccccc1)N(C(=O)c1ccccc1)[C@@H]1CCc2ccc(Cl)cc21 [Example 2-2LP, N-[(R)-Carbamoylphenylmethyl]-N-[(R)-6-chloroindan-1-yl]benzamide] | – | 221 | – |
| 91 | – | NC(=O)[C@@H](c1ccccc1)N(C(=O)c1cccc2c1OCC2)[C@@H]1CCc2c(F)cc(Cl)cc21 [Example 2-111LP, N-[(R)-carbamoylphenylmethyl]-N-[(R)-6-chloro-4-fluoroindan-1-yl]-2,3-dihydrobenzofuran-7-carboxamide] | – | – | response vs control in vivo at 0.3 mg/kg ([3]; 0.3 mg/kg/2 ml via the femoral vein): 135% |
| 100 | – | Cc1ncsc1C(=O)N([C@@H]1CCc2c(F)cc(Cl)cc21)[C@@H](C(N)=O)c1ccccc1 [Example 15LP, N-[(R)-carbamoylphenylmethyl]-N-[(R)-6-chloro-4-fluoroindan-1-yl]-4-methylthiazole-5-carboxamide] | 188 | – | – |
| 100 | – | Cc1ncccc1C(=O)N([C@@H]1CCc2c(F)cc(Cl)cc21)[C@@H](C(N)=O)c1ccccc1 [Example 14LP, N-[(R)-carbamoylphenylmethyl]-N-[(R)-6-chloro-4-fluoroindan-1-yl]-2-methylnicotinamide] | 181 | – | – |
